Measured values from publication PMC9291665, “Discovery and SAR analysis of 5-chloro-4-((substituted phenyl)amino)pyrimidine bearing histone deacetylase inhibitors” (Journal of Enzyme Inhibition and Medicinal Chemistry, 2022).

Tests used:
H3122 = system: H3122; parameters: method as in PMID 17185414, PMID 27144831; settings: cited from earlier work
H2228 = system: H2228; parameters: method as in PMID 17185414, PMID 27144831; settings: cited from earlier work
K562 cells [1] = test: In vitro antiproliferative assay (CCK-8), K562; assay type: cell-based; settings: Homo sapiens, at concentration of 1.0 µM, mean of three experiments, read-out: K562 percentage inhibitory rate
Description: (§1) The proliferation of cancer cells was tested by CCK-8 assay. Briefly, cells were seeded in 96-well plate with about 5 × 10^3 cells in each well. The cells were treated with tested compounds after 24 h of incubation. CCK-8 reagent ([…]) was added to each well after 72 h of incubation, and cells were incubated at 37 °C for 4 h. The light absorbance at 450 nm was measured by using an Opsys microplate reader (Dynex Technologies, Chantilly, VA, USA).

[2] = system: Hela nucleus extract containing a mixture of HDAC isoforms; test: HDAC enzyme inhibitory screening against Hela nucleus extract; assay type: biochemical; settings: at concentration of 1.0 µM, mean of three experiments
Description: The synthesised molecules were firstly screened against Hela nucleus extract containing a mixture of HDAC isoforms.
All HDAC enzymes were purchased from BPS Bioscience. In short, 60 µL of recombinant HDAC enzyme solution was mixed with various concentrations of test compound (40 µL), and then incubated at 37 °C for 30 minutes. The reaction was terminated by adding 100 µL of imaging agent containing trypsin and trichostatin A (TSA). After standing for 20 min, the fluorescence intensity was measured at the excitation and emission wavelengths of 360 and 460 nm with a microplate reader. The inhibition rate was calculated from the fluorescence intensity readings of the test wells relative to the control wells, and the IC50 curve and value were determined by GraphPad Prism 6.0 software.

MDA-MB-231 = test: In vitro antiproliferative assay (CCK-8), MDA-MB-231; assay type: cell-based; settings: Homo sapiens, CCK-8, 72 h
Description: (§2) Compound L20 with good performances in both enzyme and K562 cell inhibitory tests were selected for further antiproliferative assay against various cell lines. K562, U266, U937, C6, Fadu, MDA-MB-231, MDA-MB-468, A549, A2780 and HepG2 cell lines were used in the cell-based anticancer evaluation of L20.
as §1, with “USA). Results are illustrated as percent of cell viability normalised to DMSO-treated control cells.” for “USA).”

MDA-MB-468 = test: In vitro antiproliferative assay (CCK-8), MDA-MB-468; assay type: cell-based; settings: Homo sapiens, CCK-8, 72 h
Description: as §2
as §1, with “USA). Results are illustrated as percent of cell viability normalised to DMSO-treated control cells.” for “USA).”

K562 cells [3] = test: Cell apoptosis analysis by flow cytometry (Annexin V-BV421 / 7-AAD); settings: 24 h, control 1.14%
Description: Cells were incubated with Annexin V-BV421 (Becton Dickinson, USA) and 7-AAD (Becton Dickinson, USA) double labelling for 30 min in the dark at room temperature and measured by flow cytometry (FACSAriaIII, Becton Dickinson, USA). The data was analysed using Flowjo-V10 software.

SMILES	inhibition at 1 µM (K562 cells [1])	HDACs percentage inhibitory rate [2]	further results
COc1cc(N2CCC(N3CCN(C)CC3)CC2)ccc1Nc1ncc(Cl)c(Nc2ccccc2P(C)(C)=O)n1 [Brigatinib]			GI50 (H3122): 4 nM; GI50 (H2228): 10 nM
Cc1cc(Nc2ncc(Cl)c(Nc3ccccc3S(=O)(=O)C(C)C)n2)c(OC(C)C)cc1C1CCNCC1 [Ceritinib]			GI50 (H3122): 62 nM; GI50 (H2228): 121 nM
O=C(NO)c1ccc(N2CCN(c3ncc(Cl)c(Nc4ccccc4)n3)CC2)cc1 [Compound L1, 4–(4-(5-chloro-4-(phenylamino)pyrimidin-2-yl)piperazin-1-yl)-N-hydroxybenzamide]	30.7 ± 0.32%	50.54 ± 2.27%	
Cc1ccc(Nc2nc(N3CCN(c4ccc(C(=O)NO)cc4)CC3)ncc2Cl)cc1 [Compound L2, 4–(4-(5-chloro-4-(p-tolylamino)pyrimidin-2-yl)piperazin-1-yl)-N-hydroxybenzamide]	43.9 ± 0.81%	47.98 ± 1.54%	
CCc1ccc(Nc2nc(N3CCN(c4ccc(C(=O)NO)cc4)CC3)ncc2Cl)cc1 [Compound L3, 4–(4-(5-chloro-4-((4-ethylphenyl)amino)pyrimidin-2-yl)piperazin-1-yl)-N-hydroxybenzamide]	19.5 ± 0.06%	50.54 ± 0.21%	
O=C(NO)c1ccc(N2CCN(c3ncc(Cl)c(Nc4ccc(F)cc4)n3)CC2)cc1 [Compound L4, 4–(4-(5-chloro-4-((4-fluorophenyl)amino)pyrimidin-2-yl)piperazin-1-yl)-N-hydroxybenzamide]	58.2 ± 1.05%	53.89 ± 3.35%	
N#Cc1ccc(Nc2nc(N3CCN(c4ccc(C(=O)NO)cc4)CC3)ncc2Cl)cc1 [Compound L5, 4–(4-(5-chloro-4-((4-cyanophenyl)amino)pyrimidin-2-yl)piperazin-1-yl)-N-hydroxybenzamide]	31.51 ± 0.09%	48.33 ± 0.64%	
COc1cc(Nc2nc(N3CCN(c4ccc(C(=O)NO)cc4)CC3)ncc2Cl)cc(OC)c1 [Compound L6, 4–(4-(5-chloro-4-((3,5-dimethoxyphenyl)amino)pyrimidin-2-yl)piperazin-1-yl)-N-hydroxybenzamide]	56.6 ± 0.11%	59.74 ± 0.03%	
COc1ccc(Nc2nc(N3CCN(c4ccc(C(=O)NO)cc4)CC3)ncc2Cl)cc1OC [Compound L7, 4–(4-(5-chloro-4-((3,4-dimethoxyphenyl)amino)pyrimidin-2-yl)piperazin-1-yl)-N-hydroxybenzamide]	63.9 ± 1.12%	58.37 ± 1.55%	
CCOc1ccc(Nc2nc(N3CCN(c4ccc(C(=O)NO)cc4)CC3)ncc2Cl)cc1 [Compound L8, 4–(4-(5-chloro-4-((4-ethoxyphenyl)amino)pyrimidin-2-yl)piperazin-1-yl)-N-hydroxybenzamide]	37.1 ± 1.54%	49.32 ± 0.89%	
COc1cccc(Nc2nc(N3CCN(c4ccc(C(=O)NO)cc4)CC3)ncc2Cl)c1 [Compound L9, 4–(4-(5-chloro-4-((3-methoxyphenyl)amino)pyrimidin-2-yl)piperazin-1-yl)-N-hydroxybenzamide]	50.8 ± 2.92%	55.28 ± 0.15%	
O=C(NO)c1ccc(N2CCN(c3ncc(Cl)c(Nc4cccc(Br)c4)n3)CC2)cc1 [Compound L10, 4–(4–(4-((3-bromophenyl)amino)-5-chloropyrimidin-2-yl)piperazin-1-yl)-N-hydroxybenzamide]	31.6 ± 1.12%	51.50 ± 2.03%	
O=C(NO)c1ccc(N2CCN(c3ncc(Cl)c(Nc4ccc(Br)cc4)n3)CC2)cc1 [Compound L11, 4–(4–(4-((4-bromophenyl)amino)-5-chloropyrimidin-2-yl)piperazin-1-yl)-N-hydroxybenzamide]	60.9 ± 0.21%	59.82 ± 4.01%	
O=C(NO)c1ccc(N2CCN(c3ncc(Cl)c(Nc4cccc(Cl)c4)n3)CC2)cc1 [Compound L12, 4–(4-(5-chloro-4-((3-chlorophenyl)amino)pyrimidin-2-yl)piperazin-1-yl)-N-hydroxybenzamide]	50.6 ± 1.86%	32.74 ± 0.38%	
O=C(NO)c1ccc(N2CCN(c3ncc(Cl)c(Nc4ccc(Cl)cc4)n3)CC2)cc1 [Compound L13, 4–(4-(5-chloro-4-((4-chlorophenyl)amino)pyrimidin-2-yl)piperazin-1-yl)-N-hydroxybenzamide]	54.1 ± 2.34%	52.44 ± 1.44%	
O=C(NO)c1ccc(N2CCN(c3ncc(Cl)c(Nc4ccc(-c5ccccc5)cc4)n3)CC2)cc1 [Compound L14, 4–(4–(4-([1,1′-biphenyl]-4-ylamino)-5-chloropyrimidin-2-yl)piperazin-1-yl)-N-hydroxybenzamide]	35.2 ± 1.21%	46.80 ± 1.07%	
COc1cc(Nc2nc(N3CCN(c4ccc(C(=O)NO)cc4)CC3)ncc2Cl)cc(OC)c1OC [Compound L15, 4–(4-(5-chloro-4-((3,4,5-trimethoxyphenyl)amino)pyrimidin-2-yl)piperazin-1-yl)-N-hydroxybenzamide]	58.6 ± 2.01%	58.15 ± 2.02%	
O=C(NO)c1ccc(N2CCN(c3ncc(Cl)c(Nc4cccc(I)c4)n3)CC2)cc1 [Compound L16, 4-(4-(5-chloro-4-((3-iodophenyl)amino)pyrimidin-2-yl)piperazin-1-yl)-N-hydroxybenzamide]	37.1 ± 1.54%	46.50 ± 4.74%	
O=C(NO)c1ccc(N2CCN(c3ncc(Cl)c(Nc4ccc(I)cc4)n3)CC2)cc1 [Compound L17, 4-(4-(5-chloro-4-((4-iodophenyl)amino)pyrimidin-2-yl)piperazin-1-yl)-N-hydroxybenzamide]	56.4 ± 2.16%	54.51 ± 3.05%	
O=C(NO)c1ccc(N2CCN(c3ncc(Cl)c(Nc4ccc(F)c(Cl)c4)n3)CC2)cc1 [Compound L18, 4-(4-(5-chloro-4-((3-chloro-4-fluorophenyl)amino)pyrimidin-2-yl)piperazin-1-yl)-N-hydroxybenzamide]	31.3 ± 0.92%	52.92 ± 2.00%	
CC(C)S(=O)(=O)c1ccccc1Nc1nc(N2CCN(c3ccc(C(=O)NO)cc3)CC2)ncc1Cl [Compound L19, 4-(4-(5-chloro-4-((2-(isopropylsulfonyl)phenyl)amino)pyrimidin-2-yl)piperazin-1-yl)-N-hydroxybenzamide]	21.3 ± 0.65%	44.91 ± 4.97%	
COc1ccc(Nc2nc(N3CCN(c4ncc(C(=O)NO)cn4)CC3)ncc2Cl)cc1OC [Compound L21, 2–(4-(5-chloro-4-((3,4-dimethoxyphenyl)amino)pyrimidin-2-yl)piperazin-1-yl)-N-hydroxypyrimidine-5-carboxamide]	62.6 ± 2.45%	58.95 ± 0.74%	
O=C(NO)c1cnc(N2CCN(c3ncc(Cl)c(Nc4ccc(-c5ccccc5)cc4)n3)CC2)nc1 [Compound L22, 2–(4-(4-([1,1′-biphenyl]-4-ylamino)-5-chloropyrimidin-2-yl)piperazin-1-yl)-N-hydroxypyrimidine-5-carboxamide]	37.1 ± 2.11%	40.93 ± 0.50%	
O=C(CCCCCCC(=O)Nc1ccccc1)NO [SAHA, Vorinostat, reference compound]			IC50 (MDA-MB-231): 3590 ± 240 nM; IC50 (MDA-MB-468): 4850 ± 230 nM; apoptotic rate of K562 cells (K562 cells [3]; 1 µM): 1.39%; apoptotic rate of K562 cells (K562 cells [3]; 2 µM): 3.36%; apoptotic rate of K562 cells (K562 cells [3]; 4 µM): 19.75%
